Reference: US9670197B2, “Small molecule modifiers of the Hec1-Nek2 interaction in G2/M” (The Regents of the University of California, priority 2013, dated 2017)

What was measured:
cancer cell lines = assay: Cancer cell growth inhibition; assay type: cell-based
U2OS = assay: Cancer cell growth inhibition, U2OS osteosarcoma; assay type: cell-based; conditions: Homo sapiens, Table 2, Osteosarcoma, read-out: cancer cell growth suppression
Description: (§1) Cell lines and establishment of stable cell lines. Human breast cancer cell lines MDA-MB-231 and MDA-MB-468, osteosarcoma line U20S, cervical adenocarcinoma line HeLa, and normal skin fibroblast Hs27 were maintained in DMEM medium (Invitrogen, Grand Island, N.Y.) supplemented 10% fetal bovine serum (FBS) and 1% penicillin-streptomycin. The leukemia cell line K562 and glioblastoma cell line T98G were grown in RPMI 1640 supplemented 10% FBS and 1% penicillin-streptomycin. Normal mammary gland epithelial cell line MCF10A was cultured in DMEM/F12 (50:50) plus 5% horse serum, 0.1 μg/mL cholera toxin, 10 μg/mL insulin, 0.5 μg/mL hydrocortisone, and 20 ng/mL epidermal growth factor. To establish MDA-MB-468 cells that stably expressed each individual GFP-Hec1 deletion construct described above, cells were infected with retrovirus expressing GFP-Hec1 WT, GFP-Hec1 W395A and GFP-Hec1 WLK/AAA, and were selected with 2 μg/ml puromycin.

cyclin B1 = assay: Cyclin B1 level in treated HeLa cells, western blot; assay type: cell-based; conditions: dose series
Description: (§2) INH-induced Nek2 degradation; INH-inhibition of Hec1 phosphorylation by Nek2. […] To evaluate whether INH treatment affected cell cycle profile or Nek2 mRNA level, we performed FACS and real-time PCR analysis.
(§3) Protein extraction and western blot analysis. The protein extractions and western blot analyses of Examples 4-6 were conducted as follows. Cell extracts were prepared and equal amounts of protein were separated by SDS-PAGE (10% w/v gel) followed by electrophoretic transfer to PVDF membranes (Millipore, Billerica, Mass.). After blocking with 5% w/v powdered non-fat milk, the membrane was incubated with different antibodies for overnight at 4° C. and treated for 1 hr with horseradish peroxidase-conjugated goat anti-mouse IgG and goat anti-rabbit IgG antibodies (GeneTex, Irvine, Calif.). ECL detection of the horseradish peroxidase reaction was performed according to the manufacturer's instructions (Millipore, Billerica, Mass.). Protein signal was measured on a LAS 4000 mini Imaging System (Fujifilm, Valhalla, N.Y.).

HS27 = assay: Growth inhibition, normal skin fibroblast HS27; assay type: cell-based; conditions: for IC50: Homo sapiens, Table 2, Fibroblast, HS27, read-out: cell growth suppression; for growth inhibitory effect on non-tumorgenic fibroblast cells: data not shown
Description: as §1

[1] = system: MDA-MB-468 breast cancer cells tumor xenografts; assay: Breast tumor xenograft model; assay type: in vivo, athymic nude mice; conditions: versus vehicle; for tumor growth rate: thrice-weekly i.p., 10 or 50 mg/kg INH41, 5 or 20 mg/kg INH154, 6.5 weeks; for percentage of proliferating tumor cells (BrdU staining) / phosphorylation of Hec1 at S165 in tumors: tumors harvested one week after last injection
Text: INH inhibition of breast tumor growth in xenograft model. We performed in vivo xenograft mouse experiments to examine the efficacy of INHs in accordance with guidelines and protocols of the University of California at Irvine Animal Research Committee. MDA-MB-468 breast cancer cells (2×10^6) were inoculated into mammary fat pads of 6-8 week old athymic nude mice mice (nu/nu; Harlan Sprague-Dawley Inc., Indianapolis, Ind.) to form tumor xenografts. […] Administration of control and INH treatments was carried out for 6.5 weeks and tumor sizes were measured. Mice body weights and tumor sizes were measured twice weekly. Tumor volume was calculated as (length×width^2)/2 (in mm), and data were presented as mean tumor volume±SEM.
One week after the last injections were administered, mice were sacrificed and their tumors were harvested for immunohistochemistry analysis. […] Error bars represent SE (n=4) in FIGS. 2C and 2D.
Immunohistochemistry analysis was conducted as follows. Paraffin-embedded tumor sections (5 μm) were incubated with primary antibody, counterstained with hematoxylin, and detected using a LSAB™ kit (DakoCytomation) according to the manufacturer's instructions. BrdU antibody was purchased from GeneTex, Irvine, Calif. and Hec1 pS165 antibody was prepared as described in Wei et al. Phosphorylation of the Ndc80 complex protein, HEC1, by Nek2 kinase modulates chromosome alignment and signaling of the spindle assembly checkpoint. Molecular biology of the cell 22, 3584-3594 (2011), hereby incorporated by reference in its entirety.

Hec1 = target: T1, Hec1 (Homo sapiens, UniProt O14777); assay: Hec1 protein level in treated HeLa cells, western blot; assay type: cell-based; conditions: 1 μM, time course
T1 construct: expressed in transfected cells; host or cells: HeLa cells (extracts)
T1 sequence (O14777 1-642): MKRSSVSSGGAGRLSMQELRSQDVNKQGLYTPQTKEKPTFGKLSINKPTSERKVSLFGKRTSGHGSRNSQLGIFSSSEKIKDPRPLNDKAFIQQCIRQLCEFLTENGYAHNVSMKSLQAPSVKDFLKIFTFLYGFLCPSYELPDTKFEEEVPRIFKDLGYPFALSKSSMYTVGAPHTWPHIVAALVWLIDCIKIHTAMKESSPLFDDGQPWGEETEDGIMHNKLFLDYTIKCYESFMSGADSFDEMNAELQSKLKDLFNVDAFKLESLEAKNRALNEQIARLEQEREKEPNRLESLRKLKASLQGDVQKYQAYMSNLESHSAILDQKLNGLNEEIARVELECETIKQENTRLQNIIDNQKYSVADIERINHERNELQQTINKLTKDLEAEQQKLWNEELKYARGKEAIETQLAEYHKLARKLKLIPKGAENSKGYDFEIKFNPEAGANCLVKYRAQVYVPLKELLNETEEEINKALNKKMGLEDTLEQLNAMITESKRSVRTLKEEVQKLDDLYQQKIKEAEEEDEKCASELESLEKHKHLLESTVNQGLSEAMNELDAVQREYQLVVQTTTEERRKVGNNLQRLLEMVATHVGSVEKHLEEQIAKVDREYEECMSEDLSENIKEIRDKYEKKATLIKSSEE
Description: as §2, §3

HeLa cells = assay: Apoptosis assay, flow cytometry with Annexin-V staining; assay type: cell-based, human; conditions: after 48 hours, DMSO 1.8%
Description: INH-triggered mitotic catastrophe. […] Error bars represent SE, n=>200 per sample in FIG. 3A. […] Error bars represent SE n=200 in FIG. 3B. Over time, the accumulation of chromosomal and spindle abnormalities led to cell death.
The apoptosis assay was conducted as follows. 1×10^6 cells were collected and resuspended in 100 μl binding buffer (10 mM HEPES, pH 7.4; 140 mM NaCl; 2.5 mM CaCl2) after INH or control treatment for 48 hrs. To the collected cells was added 5 μl of Annexin V-FITC and 1 μl of propidium iodide (PI, […]). The cells were then gently vortexed and incubated for 15 minutes at room temperature in the dark. The samples were analyzed by flow cytometry after an additional 400 μl of binding buffer was added to each tube.

## Cc1cc(C)c(-c2csc(C(=O)c3ccncc3)n2)c(C)c1 [INH41, (4-mesitylthiazol-2-yl)(pyridin-4-yl)methanone]
Cancer cell lines
  inhibition of cancer cell growth, IC50 (in words): sub-micromolar IC50
U2OS
  IC50: 0.63 µM
Cyclin B1
  change in cyclin B1: no significant change
HS27
  IC50: 62 µM
  growth inhibitory effect on non-tumorgenic fibroblast cells: Neither INH41 nor INH154 had significant growth inhibitory effects
[1]
  tumor growth rate: significantly slower
  percentage of proliferating tumor cells (BrdU staining): reduced
  phosphorylation of Hec1 at S165 in tumors: substantially reduced
Hec1
  change in Hec1 protein level: little change
HeLa cells
  percentage of apoptotic cells: 17.4%

## Cc1cc(N2CCCCC2)cc(C)c1-c1csc(NC(=O)c2ccncc2)n1 [INH154, N-(4-(2,6-Dimethyl-4-(piperidin-1-yl)phenyl)thiazol-2-yl)isonicotinamide]
Cancer cell lines
  inhibition of cancer cell growth, IC50 (in words): sub-micromolar IC50
U2OS
  IC50: 0.11 µM
Cyclin B1
  change in cyclin B1: no significant change
HS27
  IC50: 40 µM
  growth inhibitory effect on non-tumorgenic fibroblast cells: Neither INH41 nor INH154 had significant growth inhibitory effects
[1]
  tumor growth rate: significantly slower
  percentage of proliferating tumor cells (BrdU staining): reduced
  phosphorylation of Hec1 at S165 in tumors: substantially reduced
Hec1
  change in Hec1 protein level: little change
HeLa cells
  percentage of apoptotic cells: 67.6%
